From US4690933A, “Pyridylvinyl-1H tetrazole having antihistamine activity” (priority 1984, dated 1987)
Like-named read-outs stand apart in the source and are kept apart here. One block for each compound: values may come before it.

Columns and labels:
[1] = background statement, no test described; cited from earlier work
[2] = target: T1, histamine; longitudinal muscle from the intact ileum of guinea-pigs (Cavia porcellus, UniProt P31389); test: In vitro antihistaminic activity: histamine concentration-response curves, isolated guinea-pig ileum longitudinal muscle (Schild plot); assay type: cell-based; details: negative log of the concentration of antagonist which shifts the control histamine concentration-response curve 2X to the right, one hour incubation with test compound, 60 min
T1 construct: The longitudinal muscle was isolated from the intact ileum of guinea-pigs; from tissue; host or cells: longitudinal muscle of the ileum of guinea-pigs (Harley, male 250-400 g)
T1 sequence (P31389 whole entry): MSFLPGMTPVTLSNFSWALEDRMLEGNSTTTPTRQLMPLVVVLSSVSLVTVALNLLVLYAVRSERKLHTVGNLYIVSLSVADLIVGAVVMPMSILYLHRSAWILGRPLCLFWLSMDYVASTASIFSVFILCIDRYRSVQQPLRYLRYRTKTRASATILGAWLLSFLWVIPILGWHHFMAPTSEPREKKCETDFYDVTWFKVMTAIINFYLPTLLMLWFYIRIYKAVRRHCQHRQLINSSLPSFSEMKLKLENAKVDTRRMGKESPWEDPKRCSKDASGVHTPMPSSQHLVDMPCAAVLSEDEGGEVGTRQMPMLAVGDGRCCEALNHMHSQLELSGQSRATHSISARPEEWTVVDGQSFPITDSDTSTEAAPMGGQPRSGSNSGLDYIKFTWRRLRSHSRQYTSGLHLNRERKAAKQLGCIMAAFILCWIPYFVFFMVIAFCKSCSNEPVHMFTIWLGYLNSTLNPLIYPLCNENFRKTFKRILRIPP
Experimental: A.Invitro antihistaminic activity: The longitudinal muscle was isolated from the intact ileum of guinea-pigs (Harley, male 250-400 g) and placed in an organ bath under 300 mg tension. After one hour of equilibration, cumulative concentration-response curves (Van Rossum, J. M., Arch. Int. Pharmacodyn. Ther. 143 299-330, 1963) to histamine wee obtained. Following washing, the tissues were incubated for one hour with the test compound and then a second histamine concentration-response curve was run. Shifts to the right of the agonist concentration-response curve produced by the antagonists were used to construct Schild plots (Arunlakshana, O. and Schild, H. O., Br. J. Pharmacol: 14, 48-58, 1959). Regression of Log (dr-1) on Log/B/, where dr is an equiactive response in the presence and absence of antagonist and /B/ is the molar concentration of antagonist, allowed an estimate of pA2, i.e. the negative log of the concentration of antagonist which shifts the control histamine concentration-response curve 2X to the right.
The antihistaminic activities of compounds of the present invention are detailed in table A below.

[3] = cited from earlier work
[4] = cited from earlier work; remark: listed apart in the source

Compound: O=C(O)c1ccc(/C(=C\CN2CCCC2)c2ccccn2)cc1 [(E)-1-(4-carboxyphenyl)-1-(2-pyridyl)-3-pyrrolidinoprop-1-ene]
antihistamine activity [1]: little or no antihistamine activity

pA2 [2]: 7.1
Compound: O=S(=O)(O)c1cccc(/C(=C/CN2CCCC2)c2ccccc2)c1 [Example 2, (E)-3-(1-phenyl-3-pyrrolidinoprop-1-enyl)-benzenesulphonic Acid]

pA2 [2]: 7.3
Compound: O=S(=O)(O)c1cccc(C(CCN2CCCC2)c2ccccc2)c1 (stereo not drawn) [Example 3, 3-(1-phenyl-3-pyrrolidinopropyl)benzenesulphonic acid]

Compound: COc1ccc(CN(CCN(C)C)c2ccccn2)cc1 [pyrilamine]
sedation or drowsiness ([3]; human, in vivo): cause sedation or drowsiness in some patients

Compound: CC(CN1c2ccccc2Sc2ccccc21)N(C)C (stereo not drawn) [promethazine]
sedation or drowsiness ([3]; in some patients): cause sedation or drowsiness in some patients

pA2 [2]: 8.7
Compound: Cc1ccc(/C(=C\CN2CCCC2)c2cccc(/C=C/c3nnn[nH]3)n2)cc1 [Example 1, 5-(E-6-[3-Pyrrolidino-1-(4-tolyl)prop-1E-enyl]-2-pyridylvinyl)-1H-tetrazole]

Compound: Cc1ccc(/C(=C\CN2CCCC2)c2ccccn2)cc1 [triprolidine, (E)-1-(4-methylphenyl)-1-(2-pyridyl)-3-pyrrolidinoprop-1-ene]
antihistamine activity [1]: one of the most potent antihistamines available
metabolism in man [4]: metabolized in man to (E)-1-(4-carboxyphenyl)-1-(2-pyridyl)-3-pyrrolidinoprop-1-ene
sedation or drowsiness ([3]; human, in vivo): cause sedation or drowsiness in some patients
